Experimental findings from US10968172B2, “USP30 inhibitors” (Mitobridge, Inc., priority 2017, dated 2021) are described below.

USP30, sequence (Q70CQ3 whole entry): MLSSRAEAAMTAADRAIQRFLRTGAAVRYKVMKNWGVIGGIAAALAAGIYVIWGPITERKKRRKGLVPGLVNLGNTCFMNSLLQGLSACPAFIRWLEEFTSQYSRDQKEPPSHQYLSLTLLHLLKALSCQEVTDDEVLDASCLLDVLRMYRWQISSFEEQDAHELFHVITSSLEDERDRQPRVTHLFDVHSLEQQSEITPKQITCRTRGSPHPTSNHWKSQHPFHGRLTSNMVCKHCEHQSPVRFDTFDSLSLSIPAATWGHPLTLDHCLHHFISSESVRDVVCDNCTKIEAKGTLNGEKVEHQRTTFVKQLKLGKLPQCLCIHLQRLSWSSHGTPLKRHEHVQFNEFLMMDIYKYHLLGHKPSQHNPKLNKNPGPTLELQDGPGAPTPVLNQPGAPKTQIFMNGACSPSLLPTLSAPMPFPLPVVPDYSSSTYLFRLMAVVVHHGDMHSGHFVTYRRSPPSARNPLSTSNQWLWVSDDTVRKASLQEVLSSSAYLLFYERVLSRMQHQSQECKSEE

The assay has as its target USP30 (Homo sapiens (Human), UniProt Q70CQ3). Kind of assay: In vitro biochemical assay for USP30 enzyme (Ubiquitin-Rhodamine110 cleavage, fluorescence). The following applies: 20 nM USP30, 15 min pre-incubation, 100 nM Ub rhodamine substrate, 2 hrs at room temperature. The protocol: In vitro biochemical assay for USP30 enzyme
The in vitro assay for USP30 evaluates the ability of a test compound to inhibit the activity of the enzyme to cleave ubiquitin from a substrate. Ubiquitin-rhodamine 110 is a quenched, fluorescent substrate for USP30. Cleavage of the amide bond between the C-terminal glycine of ubiquitin and rhodamine results in an increase in rhodamine fluorescence at 535 nm (Exc. 485 nm).
Incubation of the substrate in the presence or absence of USP30 was compared to confirm the deubiquitylating activity of USP30. The USP30 enzyme assay was performed by pre-incubating 20 nM of USP30 with varying concentration of a test compound in the assay buffer [PBS (pH 7.4), 1 mM DTT, 0.01% Tween 20, 0.01% BSA, DMSO final concentration is 1%] for 15 mins at room temperature, following which 100 nM of substrate Ub rhodamine was added and incubated at room temperature for 2 hrs and the plate was read for fluorescence intensity at Ex. 485 nm/535 nm in VICTOR X5 plate reader. The percent inhibition of activity of the enzyme is calculated by comparing counts in the presence and absence of compounds.
Test compounds were screened at various concentrations (10-12 tested concentrations) and dose response curves were generated was generated using GraphPad Prism software Version 7 (San Diego, Calif., USA) with non-linear regression curve fit for sigmoidal dose response (variable slope).
`COc1ccc(C[C@H](NC(=O)c2cscn2)C(=O)Nc2ccc(S(=O)(=O)NC(C)(C)C)cc2)cc1` [Compound 19x, (S)-N-(1-((4-(N-(tert-butyl)sulfamoyl)phenyl)amino)-3-(4-methoxyphenyl)-1-oxopropan-2-yl)thiazole-4-carboxamide]: the IC50 was greater than 10 µM.

Consider `CC(C)(C)NS(=O)(=O)c1ccc(NC(=O)[C@H](Cc2ccc(F)cc2)NC(=O)c2ccc(F)cc2)cc1` [Compound 19k, (S)-N-(1-((4-(N-(tert-butyl)sulfamoyl)phenyl)amino)-3-(4-fluorophenyl)-1-oxopropan-2-yl)-4-fluorobenzamide], for which the IC50 was 0.026 µM.

`CC(C)(C)NS(=O)(=O)c1cccc2c(NC(=O)[C@H](Cc3ccccc3)NC(=O)c3ccc(O)cc3)cccc12` [Compound 4w, (S)-N-(1-((5-(N-(tert-butyl)sulfamoyl)naphthalen-1-yl)amino)-1-oxo-3-phenylpropan-2-yl)-4-hydroxybenzamide] displayed a half-inhibitory concentration (IC50) greater than 10 µM.

In turn, `Cc1ccc(C[C@H](NC(=O)c2ccccc2)C(=O)Nc2cccc3c(S(=O)(=O)NC(C)(C)C)cccc23)cc1` [Compound 7m, (S)-N-(1-((5-(N-(tert-butyl)sulfamoyl)naphthalen-1-yl)amino)-1-oxo-3-(p-tolyl)propan-2-yl)benzamide] registered an IC50 greater than 10 µM.

Molecule `CC(C)(C)NS(=O)(=O)c1cccc2c(NC(=O)[C@H](Cc3ccc(Cl)cc3)NC(=O)c3ccccc3)cccc12` [Compound 7n, (S)-N-(1-((5-(N-(tert-butyl)sulfamoyl)naphthalen-1-yl)amino)-3-(4-chlorophenyl)-1-oxopropan-2-yl)benzamide] yielded an IC50 of 0.446 µM.

Turning to `CC(C)(C)NS(=O)(=O)c1ccc(NC(=O)[C@@H](Cc2ccccc2)NC(=O)C2CCCCC2)cc1` [Compound 10d, (R)-N-(1-((4-(N-(tert-butyl)sulfamoyl)phenyl)amino)-1-oxo-3-phenylpropan-2-yl)cyclohexanecarboxamide], inhibition was half-maximal at 0.028 µM (IC50).

`CC(C)(C)NS(=O)(=O)c1ccc(NC(=O)[C@H](Cc2ccccc2)NC(=O)C2CCCCC2)cc1` [Compound 10b, (S)—N-(1-((4-(N-(tert-butyl)sulfamoyl)phenyl)amino)-1-oxo-3-phenylpropan-2-yl)cyclohexanecarboxamide] registered a 50% inhibitory concentration (IC50) of 0.059 µM.

On to `CC(C)(C)NS(=O)(=O)c1cccc2c(NC(=O)[C@@H](Cc3ccccc3)NC(=O)c3ccccc3)cccc12` [Compound 4a, (R)-N-(1-((5-(N-(tert-butyl)sulfamoyl)naphthalen-1-yl)amino)-1-oxo-3-phenylpropan-2-yl)benzamide], for which the IC50 is 0.248 µM.

`CC(C)(C)NS(=O)(=O)c1cccc2c(NC(=O)[C@H](Cc3ccc(O)cc3)NC(=O)c3ccccc3)cccc12` [Compound 7b, (S)-N-(1-((5-(N-(tert-butyl)sulfamoyl)naphthalen-1-yl)amino)-3-(4-hydroxyphenyl)-1-oxopropan-2-yl)benzamide] gave an IC50 of 0.52 µM.

In the case of `CC(C)(C)NS(=O)(=O)c1ccc(NC(=O)[C@H](CC2CCCCC2)NC(=O)C2CCCCC2)cc1` [Compound 14b, (S)-N-(1-((4-(N-(tert-butyl)sulfamoyl)phenyl)amino)-3-cyclohexyl-1-oxopropan-2-yl)cyclohexanecarboxamide], the IC50 came to 0.083 µM.

`CC(C)(C)NS(=O)(=O)c1cccc2c(NC(=O)[C@H](Cc3ccccc3)NC(=O)C3CCCCCC3)cccc12` [Compound 4p, (S)-N-(1-((5-(N-(tert-butyl)sulfamoyl)naphthalen-1-yl)amino)-1-oxo-3-phenylpropan-2-yl)cycloheptanecarboxamide] came in with an IC50 of 4.3 µM.

`CC(C)(C)NS(=O)(=O)c1ccc(NC(=O)[C@H](Cc2ccncc2)NC(=O)c2ccc(F)cc2)cc1` [Compound 19y, (S)-N-(1-((4-(N-(tert-butyl)sulfamoyl)phenyl)amino)-1-oxo-3-(pyridin-4-yl)propan-2-yl)-4-fluorobenzamide] showed an IC50 of 0.02 µM.

For `CC(C)(C)NS(=O)(=O)c1ccc(NC(=O)[C@H](Cc2cccs2)NC(=O)C2CCCCC2)cc1` [Compound 19a, (S)-N-(1-((4-(N-(tert-butyl)sulfamoyl)phenyl)amino)-1-oxo-3-(thiophen-2-yl)propan-2-yl)cyclohexanecarboxamide], the IC50 turned out to be 0.028 µM.

For `Cc1cccc(C(=O)N[C@@H](Cc2ccccc2)C(=O)Nc2cccc3c(S(=O)(=O)NC(C)(C)C)cccc23)n1` [Compound 4m, (S)-N-(1-((5-(N-(tert-butyl)sulfamoyl)naphthalen-1-yl)amino)-1-oxo-3-phenylpropan-2-yl)-6-methylpicolinamide], the IC50 was greater than 10 µM.

`COc1ccc(C[C@H](NC(=O)c2ccc(F)cc2)C(=O)Nc2ccc(S(=O)(=O)NC(C)(C)C)cc2)cc1` [Compound 19f, (S)-N-(1-((4-(N-(tert-butyl)sulfamoyl)phenyl)amino)-3-(4-methoxyphenyl)-1-oxopropan-2-yl)-4-fluorobenzamide] displayed an IC50 of 0.022 µM.

`CC(C)(C)NS(=O)(=O)c1cccc2c(NC(=O)[C@H](Cc3ccccc3)NC(=O)c3ccc[nH]3)cccc12` [Compound 4y, (S)-N-(1-((5-(N-(tert-butyl)sulfamoyl)naphthalen-1-yl)amino)-1-oxo-3-phenylpropan-2-yl)-1H-pyrrole-2-carboxamide]: the midpoint of inhibition, the IC50, lay at 1.9 µM.

`CC(C)(C)NS(=O)(=O)c1ccc(NC(=O)[C@H](CC2CCCCC2)NC(=O)c2ccc(F)cc2)cc1` [Compound 14c, (S)-N-(1-((4-(N-(tert-butyl)sulfamoyl)phenyl)amino)-3-cyclohexyl-1-oxopropan-2-yl)-4-fluorobenzamide] came in with a half-inhibitory concentration (IC50) of 0.023 µM.

As to `CC(C)(C)NS(=O)(=O)c1ccc(NC(=O)[C@H](CC2CCOCC2)NC(=O)C2CCCCC2)cc1` [Compound 19ac, (S)-N-(1-((4-(N-(tert-butyl)sulfamoyl)phenyl)amino)-1-oxo-3-(tetrahydro-2H-pyran-4-yl)propan-2-yl)cyclohexanecarboxamide], the IC50 stood at 0.071 µM.

`CC(C)(C)NS(=O)(=O)c1ccc(NC(=O)[C@H](CC2CCCCC2)NC(=O)c2ccccn2)cc1` [Compound 14j, (S)-N-(1-((4-(N-(tert-butyl)sulfamoyl)phenyl)amino)-3-cyclohexyl-1-oxopropan-2-yl)picolinamide] gave an IC50 of 0.123 µM.

In turn, `CC(C)(C)NS(=O)(=O)c1cccc2c(NC(=O)[C@H](Cc3ccccc3)NC(=O)C34CC5CC(CC(C5)C3)C4)cccc12` [Compound 4s] gave a half-maximal inhibitory concentration (IC50) greater than 10 µM.

`CC(C)(C)NS(=O)(=O)c1ccc(NC(=O)[C@H](CO)NC(=O)C2CCCCC2)cc1` [Compound 19j, (S)-N-(1-((4-(N-(tert-butyl)sulfamoyl)phenyl)amino)-3-hydroxy-1-oxopropan-2-yl)cyclohexanecarboxamide] had an IC50 greater than 10 µM.

`CC(C)(C)NS(=O)(=O)c1cccc2c(NC(=O)[C@H](Cc3ccccc3)NC(=O)C3CC3)cccc12` [Compound 4d, (S)-N-(1-((5-(N-(tert-butyl)sulfamoyl)naphthalen-1-yl)amino)-1-oxo-3-phenylpropan-2-yl)cyclopropanecarboxamide] displayed an IC50 greater than 10 µM.

Consider `COc1ccc(C[C@H](NC(=O)c2cncs2)C(=O)Nc2ccc(S(=O)(=O)NC(C)(C)C)cc2)cc1` [Compound 19w, (S)-N-(1-((4-(N-(tert-butyl)sulfamoyl)phenyl)amino)-3-(4-methoxyphenyl)-1-oxopropan-2-yl)thiazole-5-carboxamide], for which the IC50 was greater than 10 µM.

Molecule `CC(C)(C)NS(=O)(=O)c1ccc(NC(=O)[C@H](CC2CCCCC2)NC(=O)c2cccc(F)c2)cc1` [Compound 14g, (S)-N-(1-((4-(N-(tert-butyl)sulfamoyl)phenyl)amino)-3-cyclohexyl-1-oxopropan-2-yl)-3-fluorobenzamide] yielded an IC50 of 0.057 µM.

Consider `CC(C)(C)NS(=O)(=O)c1cccc2c(NC(=O)[C@H](CC3CCCCC3)NC(=O)C3CCCCC3)cccc12` [Compound 19p, (S)-N-(1-((5-(N-(tert-butyl)sulfamoyl)naphthalen-1-yl)amino)-3-cyclohexyl-1-oxopropan-2-yl)cyclohexanecarboxamide], for which the IC50 was found to be 0.195 µM.

For the molecule `CC(C)(C)NS(=O)(=O)c1cccc2c(NC(=O)[C@H](Cc3ccc(C#N)cc3)NC(=O)c3ccccc3)cccc12` [Compound 7j, (S)-N-(1-((5-(N-(tert-butyl)sulfamoyl)naphthalen-1-yl)amino)-3-(4-cyanophenyl)-1-oxopropan-2-yl)benzamide], half-maximal inhibition (IC50) was put at 0.273 µM.

For `COc1ccc(C(=O)N[C@@H](Cc2cccs2)C(=O)Nc2ccc(S(=O)(=O)NC(C)(C)C)cc2)nc1` [Compound 19t, (S)-N-(1-((4-(N-(tert-butyl)sulfamoyl)phenyl)amino)-1-oxo-3-(thiophen-2-yl)propan-2-yl)-5-methoxypicolinamide], the IC50 stood at 1.04 µM.

For the molecule `CC(C)(C)NS(=O)(=O)c1cccc2c(NC(=O)[C@H](CC3CC3)NC(=O)c3ccccc3)cccc12` [Compound 7h, (S)-N-(1-((5-(N-(tert-butyl)sulfamoyl)naphthalen-1-yl)amino)-3-cyclopropyl-1-oxopropan-2-yl)benzamide], the IC50 stood at 2.2 µM.

`CC(C)(C)NS(=O)(=O)c1cccc2c(NC(=O)[C@H](CC3CCCCC3)NC(=O)c3ccccc3)cccc12` [Compound 7c, (S)-N-(1-((5-(N-(tert-butyl)sulfamoyl)naphthalen-1-yl)amino)-3-cyclohexyl-1-oxopropan-2-yl)benzamide]: the IC50 is 0.666 µM.
